Common to all, as to assay type: in vivo
In assay [1] the test system is corn. Nature of the assay: Drought resistance in seed-coated corn. The settings on record: for Drought tolerance activity in corn, result in words: corn seed treatment; for % Change Dry Weight / % Change Fresh Weight: vs mock. The protocol: The effectiveness of peptide treatment in reducing the effects of drought stress was assessed in corn using a seed treatment strategy. This strategy largely mirrors example 2, except that the seeds were coated with a peptide formulation rather than a foliar spray application.
Seeds were first sieved using mesh screens to a uniform size (21-23/64 inches). The seeds were then coated with a mixture of peptide, Unicoat™ seed coat polymer, and a minimal volume of water in a Hege 11 Liquid Seed Treater (Wintersteiger) according to manufacturer recommendations. Seeds were coated with one of the following: (i) 0.12 μg peptide/seed, (ii) […], or (iii) a ‘mock’ treatment that included no peptide. The amount of peptide per seed assumes complete transfer of the peptide to seed surfaces in the seed coating chamber. Losses during coating were not considered.
(§1) 3.5 inch pots were filled (approximately 0.2 L per pot) with Sunshine #1 mix (SunGro Horticulture), fertilized with 14-14-14 N,P,K Osmocote (Everris), and mixed for 20 minutes using a soil mixer M-5. Seeds were planted at a depth of 0.5 inch for germination. The pots were immediately irrigated by submergence then drained after about an hour. For each treatment group, 24 replicate seeds were planted. Plants were grown in a greenhouse under 16 hour light days at ˜75° F. and 8 hour dark nights at ˜65° F. Prior to drought conditions, the plants were well-watered.
Three days after planting, the plants were randomized using a complete block design and subjected to a cyclic drought stress. Drought stress was imposed by withholding water for 2-3 days until the majority of plants were under medium to severe water stress. The severity of the stress was determined by the weight of the pot and visual determination of leaf curling. Once drought stress was attained, the pots were watered to full saturation. Full Saturation (100% pot capacity) is defined as the weight of the pot filled with water-saturated soil minus the weight of the filled pot prior to adding water. Drought stress was imposed for a total of 18 days.
At the end of the experiment (18 days after initiation of drought stress), the plant was then harvested for fresh and dry weights. Individual plants were cut near the soil surface and weighed immediately (fresh weight). The plants were then placed into labeled brown paper bags and dried in a 70° C. oven for 72 hours. A dry weight was then obtained.
The following calculation was performed on the collected data: Fresh weight at harvest and dry weight at harvest for the plants grown from peptide-treated seeds were expressed as a % change relative to the ‘mock’ treated plants.

For assay [2], the system named is soy. The assay can be described thus: Drought resistance in soy (foliar spray). Particulars: vs untreated control. The method, then: The effectiveness of peptide treatment in reducing drought stress was assessed in […]. 3.5 inch pots were filled with Sunshine #1 soil (SunGro Horticulture), fertilized with a 20-10-20 mixture. The soil was soaked and drained overnight. Seeds (soy, manually inspected to ensure uniform seed size) were planted at a depth of half inch for germination. Plants were grown in a greenhouse under 16 hour light days at >70° F. and 8 hour dark nights at >65° F. Prior to drought conditions, the plants were well-watered.
When the plants reached the growth stage when first trifoliate expanded, plants were culled to achieve a uniform height (abnormally large and small plants were removed). Plants were then randomly assigned to control (spray without peptide) or treatment (spray with peptide) groups and heights were measured. Peptide was made up in a solution of 0.2 μg/ml or 2μg/ml in distilled water+0.04% Tween-20, and applied as a fine mist from a spray bottle until the solution drips from the leaves. After the peptide solutions were dried, the plants were again randomized in a randomized complete block design. Cyclic drought stress was initiated after the peptide treatment. Plants were subjected to at least three drought cycles of drought stress (3-5 days of withholding water and 1 day irrigated with saturating amount of water) before harvesting.
(§2) The drought test phase ended after 2-3 weeks. At that time, the plant height was again measured and the growth rate was calculated as the difference between this and the previously-recorded height. The above-ground part portions of the plants were harvested and weighed to obtain fresh weight. The above-ground portion was also dried in an oven at 70° C. for 72 hours to obtain dry weight. All calculations were compared with matched untreated control plants.
The drought testing procedure was carried out in soy using a treatment of P12-2, P13-4, P13-5, P13-7, P13-3, P13-14, P13-2, and P13-15 (SEQ ID NOs: 6, 10, 11, 13, 9, 20, 8, and 21). Asterisks indicate statistical significance by P-value (*: P<0.1 and **: P<0.05)

Assay [3] deals with soy. Nature of the assay: Drought resistance in seed-treated soy. Particulars: for % Change Dry Weight / % Change Fresh Weight: vs mock. The method, then: The effectiveness of peptide treatment in reducing drought stress was assessed in soy using a seed treatment strategy. This strategy largely mirrors examples 3 and 4.
Seeds were first sieved using mesh screens to a uniform size (14-17 mesh). The seeds were then coated with a mixture of peptide and Unicoat™ seed coat polymer in a Hege 11 Liquid Seed Treater (Wintersteiger) according to manufacturer recommendations. […]
as §1
Seven days after germination the heights of the plants were measured. This was determined as the distance between the soil surface and the shoot apical meristems (buds). The plants were randomized using a complete block design and subjected to a cyclic drought stress. Drought stress was imposed by withholding water for 3-4 days until the majority of plants were under medium to severe water stress. The severity of the stress was determined by the weight of the pot and visual determination of loss of turgor in the leaves (drooping). Once drought stress was attained, the pots were watered to full saturation. Full Saturation (100% pot capacity) is defined as the weight of the pot filled with water-saturated soil minus the weight of the filled pot prior to adding water. Drought stress was imposed for a total of 18 days.
At the end of the experiment (18 days after initiation of drought stress), the plant above the soil surface was then harvested for fresh and dry weights. Individual plants were cut near the soil surface and weighed immediately (fresh weight). The plants were then placed into labeled brown paper bags and dried in a 70° C. oven for 72 hours. A dry weight was then obtained. The following calculation was performed on the collected data: Fresh weight at harvest, and dry weight at harvest for the peptide-treated plants were expressed as a % change relative to the ‘mock’ treated plants.

For assay [4], the system named is corn. The assay can be described thus: Drought resistance in corn (foliar spray). Particulars: corn, foliar spray 0.2 μg/ml, vs untreated control. The method, then: The effectiveness of peptide treatment in reducing drought stress was assessed in corn. 3.5 inch pots were filled with Sunshine #1 soil (SunGro Horticulture), fertilized with a 20-10-20 mixture. The soil was soaked and drained overnight. Seeds (either corn or soy, manually inspected to ensure uniform seed size) were planted at a depth of 1 inch for germination. Plants were grown in a greenhouse under 16 hour light days at >70° F. and 8 hour dark nights at >65° F. Prior to drought conditions, the plants were well-watered.
When the plants reached the V1 stage, plants were culled to achieve a uniform height (abnormally large and small plants were removed). Plants were then randomly assigned to control (spray without peptide) or treatment (spray with peptide) groups and heights were measured. Peptide was made up in a solution of 0.2 μg/ml or 2μg/ml in distilled water+0.01% Tween-20, and applied as a fine mist from a spray bottle until the solution drips from the leaves. After the peptide solutions were dried, the plants were again randomized in a randomized complete block design. Drought stress was initiated after the peptide treatment. This was caused by maintaining the water level at 25-50% of the maximum capacity for water (capacity was decided as the weight of the pot filled with saturated soil minus the weight of the filled pot prior to adding water).
as §2
The drought testing procedure was carried out in corn using a treatment of P12, P13-10, P13-11, P13-12, P13-14, P13-4, and P13-15 (SEQ ID NOs: 5, 16, 17, 18, 20, 10, and 21). Asterisks indicate statistical significance by P-value (*: P<0.1 and **: P<0.05)

Where [5] appears, read: corn seed treatment 0.12 μg/seed.
[6] abbreviates: corn seed treatment 1.05 μg/seed.

Where “and” joins values, the source holds several entries; their conditions need not be identical. Identical values can stand only once. Marks after values point to notes of the source that are not given here.

The values that follow come from patent US20180362993A1, “ELICITOR-DERIVED PEPTIDES AND USE THEREOF” (Plant Health Care, Inc., priority 2017, published 2018).

With “LEELEELLEIFEEIEEELFEE (P13-7 peptide) [Peptide P13-7]”, the “Drought tolerance activity in corn, result in words” value (shortened to “Drought tolerance activity in corn”) with corn [1] is recorded as “preservation of activity”. In addition, in the assay with corn [1] (setting [5]), the “% Change Dry Weight” value was 4.77** % and the “% Change Fresh Weight” value is recorded as 5.6* %. In addition, in the assay on soy [2] (foliar spray 2 μg/ml), the “Dry Weight Increase” value is 4.50* % and the “Fresh Weight Increase” value was 5.80* %.
On to “MEEMEQLMKIFEEIEQELFEEEE (P13-37 peptide) [Peptide P13-37]”, for which the “% Change Dry Weight” value in the assay with soy [3] (soy seed treatment 0.9 μg/seed) is recorded as 0.48%; with corn [1] (setting [6]) it was 5.53** %. The “% Change Fresh Weight” value is listed as 0.58% in the assay on soy [3] (soy seed treatment 0.9 μg/seed) and 7.67** % in the assay on corn [1] (setting [6]). Besides, the “Drought tolerance activity in corn” value in the assay with corn [1] is listed as “preservation of activity”.
With “TSGLSPLEQLLKIFAEITQSLFG (P13-3 peptide) [Peptide P13-3]”, in the assay on corn [1] (setting [5]), the “% Change Dry Weight” value is recorded as 2.81% and the “% Change Fresh Weight” value stood at 1.49%. In addition, in the assay on soy [2] (foliar spray 0.2 μg/ml), the “Dry Weight Increase” value is reported as 8.47** % and the “Fresh Weight Increase” value is given as 11.43** %. Also, in the assay on soy [2] (foliar spray 2 μg/ml), the “Dry Weight Increase” value was 2.54% and 6.07** %; the “Fresh Weight Increase” value is 5.90** % and 13.61** %.
With “LSPLEQLMKIFADITQSLFEEEE (P13-5 peptide) [Peptide P13-5]”, the “Drought tolerance activity in corn” value in the assay with corn [1] is recorded as “supported corn drought tolerance”. In the assay on corn [1] (setting [6]), the “% Change Dry Weight” value was 5.07* % and the “% Change Fresh Weight” value is recorded as 5.66** %. Further, in the assay with soy [2] (foliar spray 0.2 μg/ml), the “Dry Weight Increase” value is 6.93** % and the “Fresh Weight Increase” value is on record as 12.23** %. In addition, in the assay with soy [2] (foliar spray 2 μg/ml), the “Dry Weight Increase” value is reported as 4.36% and the “Fresh Weight Increase” value is reported as 9.73** %.
As to “AGQTSGMSPMEQLMKIFADITESLFGDQDG (P13-43 peptide) [Peptide P13-43]”, the entries for the “% Change Dry Weight” value in the assay with soy [3] (soy seed treatment 0.1 μg/seed), with corn [1] (setting [5]) and in the assay on corn [1] (setting [6]) were 2.37%, −0.75% and 6.73** %, respectively. The “% Change Fresh Weight” value in the assay on soy [3] (soy seed treatment 0.1 μg/seed) is 1.96%; with corn [1] (setting [5]), 6.2* %; with corn [1] (setting [6]), 5.04%.
In the case of “GQTSGMSPMEQLMKIFADITQSLFG (P13-15 peptide) [Peptide P13-15]”, in the assay on corn [4], the “Dry Weight Increase” value is 6.21% and the “Fresh Weight Increase” value is recorded as 2.92%. Besides, in the assay on soy [2] (foliar spray 2 μg/ml), the “Dry Weight Increase” value was 2.07% and the “Fresh Weight Increase” value was 5.38* %.
On to “SEQEEEMEEMEQLMEIFEEIEQELFE (P13-28 peptide) [Peptide P13-28]”, for which the “Result in the seed treated drought study for soy, in words” value in the assay with soy [3] (soy seed treatment) is “significant results”. For the same sequence, the entries for the “% Change Dry Weight” value in the assay on soy [3] (soy seed treatment 0.9 μg/seed), with corn [1] (setting [5]) and in the assay with corn [1] (setting [6]) were 10.35** %, 8.52** % and 6.04** %, respectively. The “% Change Fresh Weight” value is 14.35** % with soy [3] (soy seed treatment 0.9 μg/seed), 9.99** % in the assay with corn [1] (setting [5]) and 8.18** % in the assay with corn [1] (setting [6]). Further, the “Drought tolerance activity in corn” value with corn [1] was “preservation of activity”.
